Key:
[1] = Hepatic microsomal metabolic stability; conditions: mouse
Protocol: […] Samples were taken and analyzed at time points 0, 15, 30, 45 and 60 minutes during the incubation. The reaction was terminated by adding an amount of acetonitrile solution containing the internal standard. […] The residual percentage, half-life, intrinsic clearance, amplified clearance, hepatic clearance and hepatic extraction ratio were determined. The entire experiment was performed in triplicate. All data calculations were performed by Microsoft Excel software. Peak areas were detected by extracting the ionic spectrum. The in vitro half-life (t1/2) of the parent compound was detected by fitting the natural logarithm of the percentage elimination of the parent compound linearly to time.
The in vitro intrinsic clearance (in µL/min/mg protein) was calculated using the following equation: in vitro CLint = kV/N
The amplified clearance (in mL/min/kg) was calculated using the following equation: Amplified CLint = kV/N × the amplification factor [formula]
The hepatic clearance (in mL/min/kg) was calculated using the following equation: The predicted hepatic CLH = (Q×Fu/RB×theamplifiedCLint)/([…]) [formula] • V = the incubation volume per well (0.2 mL); • N = the total amount of protein (mg) • Q = the hepatic blood flow (mL/min/kg) • Fu = the plasma free rate (assumed to be 1) • RB = the whole blood partition coefficient (assumed to be 1)
The hepatic […] was calculated using the following equation: The hepatic extraction ratio(ER) = (thepredictedhepaticCLH)/Q [formula]

[2] = system: senescent HEF, HELF, BJ, A549, HUVEC and MRC5 cells; experiment: Cell viability test (CCK-8) on induced senescent cell models, A13 vs A13bGa1; conditions: Figures 3B-3G
Protocol: (§2) Briefly, the human embryonic skin tissues and the fetal lung tissues obtained from the aborted tissues with the patient's informed consent were minced with the forcep and incubated in 1 mg/ml collagenase IV at 37°C for 1-2 hours. After the enzyme treatment, the cells were collected by centrifugation and resuspended in HEF medium (Dulbecco's modified Eagle medium (DMEM, Gibco) containing 10% fetal bovine serum (FBS, Ausbian), 1% GlutaMAX (Gibco), 1% non-essential amino acids (NEAA, Gibco) and 1% penicillin/streptomycin (Gibco). Gibco). Cells were plated on the 10 cm tissue culture dishes and grown in 10% FBS DMEM. […] They were passaged and cryopreserved according to Lonza's method. A549 cells, BJ cells and MRC5 cells were purchased from ATCC and cultured in DMEM medium containing 10% fetal bovine serum (FBS, Ausbian), and 1% penicillin/streptomycin (Gibco).
(§3) Cell Counting Kit-8 (CCK-8) assay was used to assess the cell viability. The senescent and non-senescent cells or chondrocytes were seeded into the 96-well plates and cultured overnight. The cells were then treated with control (0.05% DMSO) or different concentrations of the drug to be tested. […] Absorbance was measured at the wavelength of 450 nm.

[3] = Plasma metabolic stability; assay type: in vitro ADME, human; conditions: Huamn plasma, 10 µM, 120 minutes
Protocol: (§1) Termination of the reaction was accomplished by the addition of 3x volume of acetonitrile and centrifugation at 16000 g for 20 minutes. The supernatant was taken for a LC-MS/MS analysis. The chromatographic column: Waters XSelect HSS T3; the flow rate: 500 µL/min; the eluent: A, water (0.1% formic acid); B, acetonitrile (0.1% formic acid); the gradient elution: 0-1.5 min, 5% B, 1.5-9 min, 5%-80% B, 9-12 min, 80%-100% B, 12-14 min, 100% B, 14-14.3 min, 100%-5% B, 14.3-15 min, 5% B.

[4] = Hepatic microsomal metabolic stability
[5] = Hepatic microsomal metabolic stability; remark: listed apart in the source
[6] = system: normal cells (HEF, HELF, BJ, A549, HUVEC, MRC5); experiment: Cell viability test (CCK-8) on normal uninduced cells, A13 vs A13bGa1; conditions: compared with parent compound A13
Protocol: as §2, §3

[7] = Plasma metabolic stability; assay type: in vitro ADME; conditions: 10 µM, 120 minutes; for The peak area after normalisation at minute 120, peak 1 oxidative dehydrogenation: metabolite peak
Protocol: as §1

With Cc1c(-c2ccc(N3CCc4cccc(C(=O)Nc5nc6ccccc6s5)c4C3)nc2C(=O)OCc2ccc(O[C@@H]3O[C@H](CO)[C@H](O)[C@H](O)[C@H]3O)c([N+](=O)[O-])c2)cnn1CC12CC3CC(CC(C3)C1)C2 [A13bGa1] the “The hepatic extraction ratio (E)” value [1] was 0.40, the CLint scaled at 1 µM ([1]; microsomes) was 36.2 mL/min/kg and the microsomal CLint at 1 µM ([1]; microsomes) was 13.8 µL/min/mg. The “overall killing activity on the senescent cells compared with parent compound” value [2] was “somewhat reduced compared with that of the parent compound A13”, the “killing of the senescent cells” value ([2]; skin-derived fibroblasts, lung-derived cells, vascular endothelial-derived cells) was “highly efficient and selective in killing the senescent cells” and the “The peak area after normalisation at minute 120, Initial drug A13bGa1” value [3] was 99.93%. For the same compound, the “The peak area after normalisation at minute 120, peak 1 oxidative dehydrogenation” value ([3]; metabolite peak) was 0.07%, the “The hepatic extraction ratio (E)” value ([4]; Monkey) was 0.69 and the microsomal CLint at 1 µM ([4]; monkey, microsomes) was 65.3 µL/min/mg. For the same compound, the CLint scaled at 1 µM ([4]; monkey, microsomes, The amplified intrinsic clearance Cl int) was 9800 mL/min/kg, the CLint scaled at 1 µM ([4]; monkey, microsomes, The predicted intrinsic hepatic clearance Cl int) was 30.2 mL/min/kg and the CLint scaled [5] was 17.9 mL/min/kg. The “The hepatic extraction ratio (E)” value ([5]; human) was 0.86, the “toxicity to the normal cells” value [6] was “greatly reduced” and the “The peak area after normalisation at minute 120, Initial drug A13bGa1” value ([7]; Canine plasma) was 99.52%. The “The peak area after normalisation at minute 120, Initial drug A13bGa1” value ([7]; Monkey plasma) was 99.96%, the “The peak area after normalisation at minute 120, Initial drug A13bGa1” value ([7]; Mouse plasma) was 99.96% and the “The peak area after normalisation at minute 120, Initial drug A13bGa1” value ([7]; Rat plasma) was 99.87%. For the same compound, the “The peak area after normalisation at minute 120, peak 1 oxidative dehydrogenation” value ([7]; Canine plasma) was 0.48%, the “The peak area after normalisation at minute 120, peak 1 oxidative dehydrogenation” value ([7]; Monkey plasma) was 0.04% and the “The peak area after normalisation at minute 120, peak 1 oxidative dehydrogenation” value ([7]; Mouse plasma) was 0.04%. For the same compound, the “The peak area after normalisation at minute 120, peak 1 oxidative dehydrogenation” value ([7]; Rat plasma) was 0.13%.

— patent EP4574175A1, “PRODRUG FOR ANTI-AGING RELATED DISEASES AND USE METHOD THEREFOR” (BEIJING SUNCELL BIO-MEDICAL CO., LTD., priority 2022, dated 2024)
